Data set [1] concerns the target Monoamine oxidase (Mesocricetus auratus).
In data set [2] the test system is Aldehyde dehydrogenase, mitochondrial (Mesocricetus auratus). In words: Inhibition of hamster liver aldehyde dehydrogenase ALDH-2; No inhibition uM.
The test system of data set [3] is Monoamine oxidase (Mesocricetus auratus). Description: Inhibition of hamster liver mitochondrial monoamine oxidase MAO.
Data set [4] concerns the target Aldehyde dehydrogenase, mitochondrial (Mesocricetus auratus). In words: Inhibition of hamster liver aldehyde dehydrogenase ALDH-2.

For 26 compounds, IC50 and NI results are on record in ChEMBL document CHEMBL1134620, “Synthesis of potential antidipsotropic isoflavones: inhibitors of the mitochondrial monoamine oxidase-aldehyde dehydrogenase pathway” (J Med Chem, 2001).

Each structure is given as a SMILES string. A value given as a limit tells only on which side of the number the result lay.

Regarding `O=C(O)CCCCOc1ccc2c(=O)c(-c3ccc(O)cc3)coc2c1`, the IC50 in data set [1] was determined as 5 µM. This counts as single-digit micromolar.

For the compound `CC(C)Oc1ccc(-c2coc3cc(OC(C)C)ccc3c2=O)cc1`, the NI entry in data set [2] and in data set [3] was “No inhibition” throughout.

`O=C(O)COc1ccc2c(=O)c(-c3ccc(O)cc3)coc2c1`: the IC50 in data set [1] was >> 9 uM.

In turn, `O=c1c(-c2ccc(O)cc2)coc2cc(OCCCCBr)ccc12` registered an IC50 in data set [4] of 0.27 µM.

On to `CCCCC(Oc1ccc2c(=O)c(-c3ccc(O)cc3)coc2c1)C(=O)OCC` (stereo not given), for which the IC50 in data set [1] is given as >> 9 uM.

With `CCCCCCCCCCCCOc1ccc(-c2coc3cc(OCCCCCCCCCCCC)ccc3c2=O)cc1`, the NI entry in data set [2] and in data set [3] was “No inhibition” each time.

For `COc1cc2ccc(=O)oc2cc1OC` [SCOPARONE], the NI result in data set [2] and in data set [3] was “No inhibition” in each case.

For `NCCCCOc1ccc2c(=O)c(-c3ccc(O)cc3)coc2c1`, the IC50 in data set [1] is more than 9 µM.

In the case of `O=C(O)CCCCCCCOc1ccc2c(=O)c(-c3ccc(O)cc3)coc2c1`, the IC50 in data set [1] is 6.5 µM.

With `CCOC(=O)CCCCCOc1ccc2c(=O)c(-c3ccc(O)cc3)coc2c1`, in data set [1], the IC50 turned out to be 5.3 µM.

Regarding `O=c1c(-c2ccc(O)cc2)coc2cc(OCCCBr)ccc12`, the IC50 in data set [4] is 0.26 µM.

On to `O=c1c(-c2ccc(OCCCCCCCCCO)cc2)coc2cc(OCCCCCCCCCO)ccc12`, for which the NI result in data set [2] and in data set [3] was “No inhibition” throughout.

As for `CCCCCCC(Oc1ccc2c(=O)c(-c3ccc(O)cc3)coc2c1)C(=O)OCC` (stereo not given), the IC50 in data set [1] is recorded as >> 9 uM.

`CCOC(=O)C(C)Oc1ccc(-c2coc3cc(OC(C)C(=O)OCC)ccc3c2=O)cc1` (stereo not given): the NI entry in data set [2] and in data set [3] was “No inhibition” throughout.

In data set [1], `O=c1c(-c2ccc(O)cc2)coc2cc(OCCCCCCCCCO)ccc12` had an IC50 of more than 9 µM.

In data set [4], `O=c1c(-c2ccc(O)cc2)coc2cc(OCCCCCCBr)ccc12` returned a concentration for half-maximal inhibition (IC50) of 0.3 µM. In other words, the sub-micromolar range.

For `CCOC(=O)CCCCCOc1ccc(-c2coc3cc(OCCCCCC(=O)OCC)ccc3c2=O)cc1`, the NI entry in data set [2] and in data set [3] was “No inhibition” throughout.

Take `CCOC(=O)CCCCOc1ccc(-c2coc3cc(OCCCCC(=O)OCC)ccc3c2=O)cc1`: the NI result in data set [2] and in data set [3] was “No inhibition” throughout.

As for `CC(C)Oc1ccc2c(=O)c(-c3ccc(O)cc3)coc2c1`, the IC50 in data set [1] stood at 0.2 µM.

In the case of `O=C(O)CCCCCOc1ccc2c(=O)cc(-c3ccc(O)cc3)oc2c1`, the IC50 in data set [1] turned out to be 7 µM. Against the preceding compound, the IC50 is about 35-fold higher.

`C=CCCCCOc1ccc(-c2coc3cc(OCCCCC=C)ccc3c2=O)cc1`: the NI result in data set [2] and in data set [3] was “No inhibition” throughout.

Take `CCCCCCOc1ccc(-c2coc3cc(OCCCCCC)ccc3c2=O)cc1`: the NI result in data set [2] and in data set [3] was “No inhibition” in each case.

Take `NCCCCCCOc1ccc2c(=O)c(-c3ccc(O)cc3)coc2c1`: the IC50 in data set [1] is listed as >> 9 uM.

With `C=CCCCCOc1ccc2c(=O)c(-c3ccc(O)cc3)coc2c1`, the concentration for half-maximal inhibition (IC50) in data set [1] stood at 5 µM. That is a single-digit micromolar value.

The compound `CCOC(=O)CCCCOc1ccc2c(=O)c(-c3ccc(O)cc3)coc2c1` gave an IC50 in data set [1] of more than 9 µM.

Consider `O=c1c(-c2ccc(O)cc2)coc2cc(OCCCCCCO)ccc12`, for which the IC50 in data set [1] is more than 9 µM.

For orientation: IC50 means the point on the concentration scale where inhibition reaches its midpoint. Higher therefore signals weaker potency in that assay.
